Assay results: US20030219712A1, “Addition of glycolysis inhibitor to a pathogen reduction and storage solution” (priority 2002, published 2003)

Assays:
Type in all cases: cell-based
[1] = tested on: pathogen reduced platelets; assay: Lactate production by pathogen reduced platelets over five day storage; conditions: 10 mM 2-deoxy-D-glucose; five days in storage; riboflavin, 7 J/cm^2 320 nm light; vs platelets without 2-deoxy-D-glucose (FIG. 1)
From the text: (§1) The following figures graph the quality of pathogen reduced platelets over a five day storage period. Platelets were separated from whole blood and collected using a blood collection device such as the COBE Spectra™ or TRIMA® apheresis systems available from Gambro BCT Inc., Lakewood, Colo., USA. However, it should be noted that any device known in the art for separating blood into components may be used to collect platelets without departing from the spirit and scope of the present invention.
(§2) Collected platelets were suspended in a volume of 278 mL of fluid containing […] riboflavin and either with or without a glycolytic inhibitor. 2-deoxy-D-glucose is one example of a glycolytic inhibitor which may be used in the present invention. The platelets were irradiated in a Sengewald bag (available from Sengewald Verpackungen GmbH & Co. KG) (however any bag known in the art may be used) at 7 J/cm^2 with a 320 nm broad band eximer light.

[2] = tested on: pathogen treated platelets; assay: GMP-140 expression on the surface of pathogen treated platelets (platelet activation) over five day storage; conditions: solutions containing 2-deoxy-D-glucose, vs solutions without glycolytic inhibitors (FIG. 4)
From the text: as §1, §2
FIG. 4 is a graph showing GMP-140 expression on the surface of pathogen treated platelets over a five day storage period. GMP-140 is a marker which appears on the surface of platelets which are activated. When transfused into a recipient, platelets which are activated during storage have a higher percentage of being quickly removed from the recipient's circulatory system than non-activated platelets.

[3] = tested on: pathogen reduced platelets; assay: Glucose consumption of pathogen reduced platelets over time; conditions: 10 mM 2-deoxy-D-glucose; riboflavin, 7 J/cm^2 320 nm light; vs platelets containing no 2-deoxy-D-glucose (FIG. 2)
From the text: as §1, §2

[4] = tested on: pathogen reduced platelets; assay: pH over time of a solution of pathogen reduced platelets; conditions: 10 mM 2-deoxy-D-glucose; five day storage; platelets without it show rapid drop in pH (FIG. 3)
From the text: as §1, §2
As shown, 10 mM 2-deoxy-D-glucose appears to maintain the pH of the platelets at approximately pH 7.40. Platelets without 2-deoxy-D-glucose experience a rapid drop in pH. Such results are expected because lactic acid is not produced at high rates if the glycolysis pathway is inhibited, and consequently, the pH of the solution remains at a relatively constant level.

O=CC[C@@H](O)[C@H](O)[C@H](O)CO [2-deoxy-D-glucose]
production of lactic acid [1]: marked decrease | percentage of GMP-140 expression [2]: lower percentage | glucose consumption [3]: slower rate | pH of the platelets maintained during storage [4]: ~7.40
